Assay results as given in BigSolDB 2.1.

CC(C)(c1cc(Br)c(O)c(Br)c1)c1cc(Br)c(O)c(Br)c1
solubility (mole fraction)
Details | in ethanol | in ethyl acetate | in isopropanol | in methanol | in n-butanol | in n-butyl acetate | in n-pentanol | in n-propanol | in sec-butanol
298.15 K | 0.0511 | 0.139 | 0.0242 | 0.0499 | 0.0511 | 0.142 | 0.0567 | 0.0452 | 0.0262
303.15 K | 0.0516 | 0.139 | 0.0259 | 0.0511 | 0.0522 | 0.142 | 0.058 | 0.046 | 0.0288
308.15 K | 0.0534 | 0.141 | 0.0284 | 0.0524 | 0.0542 | 0.144 | 0.0596 | 0.0476 | 0.0321
313.15 K | 0.0558 | 0.144 | 0.031 | 0.0546 | 0.0573 | 0.146 | 0.0609 | 0.0502 | 0.0364
318.15 K | 0.0577 | 0.147 | 0.0343 | 0.0564 | 0.0602 | 0.148 | 0.0634 | 0.0522 | 0.0399
323.15 K | 0.0616 | 0.152 | 0.0381 | 0.0585 | 0.0642 | 0.151 | 0.0669 | 0.0553 | 0.045
328.15 K | 0.0642 | 0.157 | 0.0435 | 0.0615 | 0.0678 | 0.155 | 0.0705 | 0.059 | 0.0502
333.15 K | 0.0693 | 0.161 | 0.0484 | – | 0.0717 | 0.159 | 0.0752 | 0.063 | 0.056
